Experimental data published in paper PMC9100673, “Acridine Based N-Acylhydrazone Derivatives as Potential Anticancer Agents: Synthesis, Characterization and ctDNA/HSA Spectroscopic Binding Properties” (Molecules, 2022).

Key:
[1] = molecular target: T1, human serum albumin (HSA) (Homo sapiens, UniProt P02768); assay: HSA fluorescence quenching (steady-state fluorescence titration); format: binding; settings: for KSV, Stern–Volmer quenching constant: HSA 4 μM, pH 7.4; for ΔH / ΔS: van't Hoff plot, 25–35 °C; for blue shift of HSA fluorescence emission maximum: λex 280 nm
T1 construct: purchased Sigma (St. Louis, MO, USA)
T1 sequence (P02768 25-609): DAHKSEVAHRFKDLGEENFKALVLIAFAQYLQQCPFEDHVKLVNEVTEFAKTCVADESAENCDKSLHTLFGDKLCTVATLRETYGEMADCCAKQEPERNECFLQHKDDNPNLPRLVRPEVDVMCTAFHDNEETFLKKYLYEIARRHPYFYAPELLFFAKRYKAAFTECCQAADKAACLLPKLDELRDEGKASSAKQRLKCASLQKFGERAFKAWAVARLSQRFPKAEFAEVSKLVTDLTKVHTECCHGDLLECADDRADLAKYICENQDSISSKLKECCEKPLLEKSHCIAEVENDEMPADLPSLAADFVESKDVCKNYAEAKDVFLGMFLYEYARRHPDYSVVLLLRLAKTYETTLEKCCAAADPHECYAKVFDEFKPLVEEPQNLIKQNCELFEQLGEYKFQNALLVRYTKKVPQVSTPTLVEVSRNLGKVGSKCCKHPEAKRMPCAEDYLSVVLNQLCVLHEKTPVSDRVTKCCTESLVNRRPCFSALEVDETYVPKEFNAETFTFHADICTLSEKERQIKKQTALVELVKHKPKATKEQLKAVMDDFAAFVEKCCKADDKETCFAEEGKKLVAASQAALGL
Protocol: Human serum albumin (HSA) emission spectra were recorded in the absence and presence of different amounts of acridine derivatives (3a–3d) at a range of 285 to 550 nm upon excitation at 280 nm. The emission maximum of fluorescence intensity of HSA was identified at 340 nm. […] The fluorescence intensity of HSA in the presence of the acridine derivatives decreases in the relation […], with decreases of 58%, 51%, 43% and 38%, respectively. Moreover, the reduction of fluorescence emission of HSA by derivatives 3a–3d was accompanied by an apparent change in the position of the maximum wavelength of the fluorescence emission, with a blue shift of 6 nm (3d) ≈ (3b) < 7 nm (3c) < 8 nm (3a).
The appearance of an isoactinic point at 430 nm might also indicate the existence of an equilibrium between bound and free drugs, with the presence of such an equilibrium possibly emphasizing the formation of the drug–protein complex. Fluorescence quenching can be divided into the two processes of dynamic and static quenching. In dynamic quenching, the fluorophore and quencher are in contact in an excited state, increasing the temperature and resulting in faster diffusion and a higher frequency of collision, which in turn increases the quenching constant. In comparison, static quenching is typical in complexes formed between the fluorophore and quencher in a ground state in which the increasing temperature weakens the stability of the complex. Quantitative analysis was performed by using the Stern–Volmer Equation (1):(1) F0/F=1+KSVQ=1+Kqτ0Q, where F0 and F represent the fluorescence intensity of HSA in the absence and presence of acridine derivatives, respectively. KSV is the Stern–Volmer dynamic quenching constant which was determined from the plot of relative intensity F0/F of fluorescence vs. the concentration of the acridine derivative. Kq is the quenching rate constant of biomolecules, which is known to be around 2.0 × 10^10 M^−1 s^−1, and τ0 is the average lifetime of the fluorophore in the absence of the quencher, with a typical value equal to around 10^−8 for biomolecules. The quenching constant KSV of derivatives 3a–3d were of 10^5 M^−1. The KSV values recorded for derivatives 3a and 3b decreased at increasing temperatures, while those of derivatives 3c and 3d increased at increasing temperatures. The increased KSV values at increasing temperature in the presence of derivative 3c may indicate that the binding forces are mainly hydrophobic (endothermic apolar interactions are strengthened at increasing temperatures). Additionally, the Kq values obtained for HSA of 10^13 M^−1 s^−1 are greater than the limiting diffusion rate constant of diffusional quenching for biopolymers (2.0 × 10^10 M^−1 s^−1).
In order to evaluate the magnitude of the interaction, other parameters such as the binding constant ( Kb) and the number of binding sites (n) on the drug–HSA complex were calculated at three temperatures using Equation (2):(2) logF0−F/F=logKb+nlogQ, where F0 and F are the fluorescence intensity of the fluorophore (HSA) in the absence and presence of the quencher-acridine derivative, and [Q] is the quencher concentration. The values of Kb and n were determined using the linear regression of a plot of log(F0 − F/F) to log[Q] (Figure S3). […] Since the values of Kb were 10^5 M^−1 (3a–3c) or 10^4 M^−1 (3d), it would therefore be suitable for distribution in the plasma in vivo.
Based on the Kb dependency on temperature, it is, therefore, possible to analyse the temperature-dependent thermodynamic parameters which can be considered as responsible for the formation of a complex. […]

CCD-18Co cells = assay: MTT assay, metabolic activity of CCD-18Co fibroblasts; format: cell-based, human; settings: 48 h; for IC50: Homo sapiens, CCD-18Co
Protocol: The effect of acridine-benzohydrazides (3a–3d) on the metabolic activity of the lung adenocarcinoma cell line (A549) and the normal colon fibroblast cell line (CCD-18Co) was evaluated using a 3-(4,5-dimethylthiazol-2-yl)-2,5-diphenyltertrazolium bromide (MTT) cell assay. This assay is based on the metabolization of yellow MTT to purple formazan crystal by mitochondrial dehydrogenases, and therefore only metabolic active cells are capable of that reaction. The CCD-18Co cell line was used as a control to check for derivatives selectivity. The doxorubicin belongs to a group of anthracyclines, which represent the chemotherapeutic regiments for the treatment of NSCLC (non-small cell lung carcinoma) even today, and acts as antineoplastic mainly by interaction with the DNA topoisomerase II and by creating DNA single- and double-strand breaks. Previous studies described detailed cytotoxic effects of doxorubicin in the human lung adenocarcinoma A549 cell line. Doxorubicin resembles our compounds in its biological action; therefore, it was employed as a positive control.
Human lung carcinoma cell line A549 and CCD-18Co colon fibroblasts were purchased from the American Type Culture Collection (ATCC, Rockville, MD, USA). The A549 cells were cultured in a complete RPMI-1640 medium (Sigma-Aldrich, St. Louis, MO, USA) and CCD-18Co cells were cultured in a minimum essential medium (MEM) (PAN-Biotech GmbH, Aidenbach, Germany) at 37 °C, 95% humidity and 5% CO2. The media were supplemented with 10% fetal bovine serum (FBS, Biosera, Nuaille, France) and antibiotics (1% Antibiotic-Antimycotic 100 × and 50 × 10^−3 g L^−1 gentamicin, Biosera). Prior to the selected treatments, cells were seeded on 6- and/or 96-well plates (TPP, Trasadingen, Switzerland) and left to settle for 24 h. The acridine compounds solutions (at concentrations ranging from 5–75 µM) were then added to cells for 24 or 48 h, and analysis was subsequently performed.
MTT assays were performed in order to evaluate changes in the metabolic activity of cells that had occurred as a consequence of treatment with the acridine compounds. A549 cells (15 × 10^3 cells/cm^2) and CCD-18Co (15.625 × 10^3 cells/cm^2) were seeded in 96-well microplates. The A549 cells were treated for 24 and 48 h, and the CCD-18Co cells were treated for 48 h with different concentrations (5, 25, 50 and 75 µM) of the derivatives. After the treatment, the MTT (3-(4,5-dimethylthiazol-2-yl)-2,5-diphenyltertrazolium bromide) solution in PBS (5 mg mL^−1) was added to each well. The reaction was stopped after 4 h incubation, and the formazan was dissolved by the addition of SDS at a final concentration of 3.3%. The absorbance of formazan (λ = 584 nm) was measured using a BMG FLUOstar Optima spectrometer (BMG Labtech GmbH, Offenburg, Germany). The results were evaluated as percentages of the absorbance of the untreated control. Results are presented as the average percentage of cells from three independent experiments. IC50 values for the derivatives were extrapolated from a sigmoidal fit (dose-response curve) to the metabolic activity data using OriginPro 8.5.0 SR1 (OriginLab Corp., Northampton, MA, USA).

| SMILES | Kq, bimolecular quenching rate constant ([1]; 25 °C) | n, number of binding sites ([1]; 25 °C) | ΔG ([1]; 25 °C) | KSV, Stern–Volmer quenching constant ([1]; 25 °C) | Kq, bimolecular quenching rate constant ([1]; 30 °C) | n, number of binding sites ([1]; 30 °C) | ΔG ([1]; 30 °C) | KSV, Stern–Volmer quenching constant ([1]; 30 °C) | Kq, bimolecular quenching rate constant ([1]; 35 °C) | n, number of binding sites ([1]; 35 °C) | ΔG ([1]; 35 °C) | KSV, Stern–Volmer quenching constant ([1]; 35 °C) | ΔH [1] | ΔS [1] | KSV for the HSA-3a complex ([1]; without site marker) | Kb for the HSA-3a complex ([1]; without site marker) | blue shift of HSA fluorescence emission maximum [1] | times less activity than doxorubicin in CCD18-Co (CCD-18Co cells; from IC50) | IC50 (CCD-18Co cells) |
| --- | --- | --- | --- | --- | --- | --- | --- | --- | --- | --- | --- | --- | --- | --- | --- | --- | --- | --- | --- |
| O=C(N/N=C/c1cccc2cc3ccccc3nc12)c1ccccc1 [3a, N′-[(E)-(Acridin-4-yl)methylidene]benzohydrazide] | 2.67e+13 M⁻¹ s⁻¹ | 1.068 | -7.918 kcal/mol | 267000 M⁻¹ | 2.68e+13 M⁻¹ s⁻¹ | 1.054 | -7.878 kcal/mol | 268000 M⁻¹ | 2.61e+13 M⁻¹ s⁻¹ | 1.023 | -7.837 kcal/mol | 261000 M⁻¹ | -10.33 kcal/mol | −33.80 ×10^−3 kJ mol^−1 K^−1 | 267000 M⁻¹ | 610000 M⁻¹ | 8 nm | > 15 | > 75 µM |
| O=C(N/N=C/c1cccc2cc3ccccc3nc12)c1ccc(F)cc1 [3b, N′-[(E)-Acridin-4-ylmethylidene]-4-fluorobenzohydrazide] | 1.51e+13 M⁻¹ s⁻¹ | 1.079 | -7.66 kcal/mol | 151000 M⁻¹ | 1.57e+13 M⁻¹ s⁻¹ | 1.061 | -7.61 kcal/mol | 157000 M⁻¹ | 1.37e+13 M⁻¹ s⁻¹ | 1.039 | -7.557 kcal/mol | 137000 M⁻¹ | -10.74 kcal/mol | −43.24 ×10^−3 kJ mol^−1 K^−1 |  |  | ~6 nm |  | 8 µM |
| O=C(N/N=C/c1cccc2cc3ccccc3nc12)c1ccc(Cl)cc1 [3c, N′-[(E)-Acridin-4-ylmethylidene]-4-chlorobenzohydrazide] | 2.29e+13 M⁻¹ s⁻¹ | 0.888 | -6.427 kcal/mol | 229000 M⁻¹ | 2.48e+13 M⁻¹ s⁻¹ | 0.925 | -7.108 kcal/mol | 248000 M⁻¹ | 2.62e+13 M⁻¹ s⁻¹ | 1.030 | -7.787 kcal/mol | 262000 M⁻¹ | 34.07 kcal/mol | 568.32 ×10^−3 kJ mol^−1 K^−1 |  |  | 7 nm |  | 16 µM |
| O=C(N/N=C/c1cccc2cc3ccccc3nc12)c1ccc(Br)cc1 [3d, N′-[(E)-Acridin-4-ylmethylidene]-4-bromobenzohydrazide] | 1.16e+13 M⁻¹ s⁻¹ | 1.052 | -7.249 kcal/mol | 116000 M⁻¹ | 2.06e+13 M⁻¹ s⁻¹ | 0.917 | -6.828 kcal/mol | 206000 M⁻¹ | 2.42e+13 M⁻¹ s⁻¹ | 0.846 | -6.408 kcal/mol | 242000 M⁻¹ | -32.361 kcal/mol | −352.39 ×10^−3 kJ mol^−1 K^−1 |  |  | 6 nm |  | 17 µM |
